# From US20110105389A1 (priority 2009, published 2011)
# Like-named read-outs stand apart in the source and are kept apart here.
# Assays:
# [1] = target: T1, ghrelin receptor (HEK-GHSR1 stable cells) (Homo sapiens, UniProt Q92847); experiment: Ghrelin receptor inverse agonist assay (HTRF IP-one), Method B4; type: cell-based
# T1 construct: expressed in transfected cells
# In short: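 HEK cells stably expressing GHSR1, seeded at 100 000 cells/well overnight, exposed to compound for 30 min at 37° C. Cells then lysed and IP1 accumulation measured by HTRF (d2 plus anti-IP1 cryptate, 1 h at room temp). Wells lacking d2 served as negative control.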
# [2] = Plasma protein binding (equilibrium dialysis), Method B5; type: in vitro ADME; conditions: 60 min at 37° C., typically 10 μM
# Excerpt: B5. Plasma Protein Binding
# The pharmacokinetic and pharmacodynamic properties of drugs are largely a function of the reversible binding of drugs to plasma or serum proteins such as albumin and α1-acid glycoprotein. In general, only unbound drug is available for diffusion or transport across cell membranes, and for interaction at the pharmacological target. On the other hand, drugs with low plasma protein binding generally have large volumes of distribution and rapid clearance since only unbound drug is available for glomerular filtration and, in some cases, hepatic clearance. Thus, the extent of plasma protein binding can influence efficacy, distribution and elimination. The ideal range for plasma protein binding is in the range of 87-98% for most drug products.
# Protein binding studies were performed using human plasma. Briefly, 96-well microplates were used to incubate various concentrations of the test article for 60 min at 37° C. A concentration of 10 μM was a typical selection to be employed in this study. Bound and unbound fractions are separated by equilibrium dialysis, where the concentration remaining in the unbound fraction is quantified by LC-MS or LC-MS-MS analysis. […].
# [3] = Pharmacokinetic analysis (intravenous and oral), Method B9; type: in vivo; conditions: for % F: 2 mg/mL intravenous and 8 mg/mL oral typically employed; for Tmax: individual values; for Vd: read-out: Vz
# Excerpt: B9. Pharmacokinetic Analysis
# The pharmacokinetic (PK) behavior of compounds of the invention and their pharmaceutical compositions can be ascertained by methods well known to those skilled in the art and can be used to investigate the pharmacokinetic parameters (elimination half-life, total plasma clearance, etc.) for intravenous, subcutaneous and oral administration of these substances. (Wilkinson, G. R. “Pharmacokinetics: The Dynamics of Drug Absorption, Distribution, and Elimination” in Goodman & Gilman's The Pharmacological Basis of Therapeutics, Tenth Edition, Hardman, J. G.; Limbird, L. E., Eds., McGraw Hill, Columbus, Ohio, 2001, Chapter 1.) See also U.S. Pat. Nos. 7,476,653; 7,491,695; Intl. Pat. Appl. WO 2008/033328 and U.S. Patent Appl. Publ. 2008/0194672. As an example, compound 1505 has the PK profile below.
# The determination of PK parameters for additional representative compounds of the invention is presented in the Examples.
# A detailed analysis of the pharmacokinetic profile of representative compounds of the invention was conducted using the procedures outlined in Method B9.
# A dose level of 2 mg/mL for intravenous administration and 8 mg/mL for oral administration were typically employed.
# [4] = system: rat stomach fundus strips; experiment: Ex-vivo potency evaluation on the rat stomach fundus (inhibition of ghrelin-induced contractility), Method B10; conditions: EFS
# Description: B10. Ex-vivo Potency Evaluation on the Rat Stomach Fundus
# Fundus strips (approximately 0.4×1 cm) were cut from the stomach of adult male Wistar rats parallel to the circular muscle fibers. They were placed between two platinum ring electrodes, 1 cm apart (Radnoti, ADlnstruments, USA) in 10 ml tissue baths containing Krebs solution bubbled with 5% CO2 in O2 and maintained at 37° C. Tissues were suspended under 1.5 g resting tension. Changes of tension were measured isometrically with force transducers and recorded with a PowerLab 8/30 data acquisition system (ADlnstruments, USA). Tissues were allowed to equilibrate for 60 min during which time bath solutions were changed every 15 min.
# EFS was achieved by applying 0.5 ms pulses, 5 Hz frequency, at a maximally effective voltage of 70 V. EFS was applied for 30 sec at 3 min intervals for a 30 min initial period. This initial period was separated by a […] interval with wash out of the bath solution. Then, a second period of stimulation was started. […] Responses to the agents were measured and expressed as % of the mean of three or four pre-drug responses to EFS. All compounds were dissolved at 1 mM in distilled water or MeOH, as stock solutions.
# IC50 values for the inhibition of ghrelin-induced contractility by representative compounds of the invention are presented in Table 7.
# CYP3A4 = CYP3A4 (Homo sapiens, UniProt P08684); experiment: biochemical
# CYP3A4, sequence (P08684 whole entry): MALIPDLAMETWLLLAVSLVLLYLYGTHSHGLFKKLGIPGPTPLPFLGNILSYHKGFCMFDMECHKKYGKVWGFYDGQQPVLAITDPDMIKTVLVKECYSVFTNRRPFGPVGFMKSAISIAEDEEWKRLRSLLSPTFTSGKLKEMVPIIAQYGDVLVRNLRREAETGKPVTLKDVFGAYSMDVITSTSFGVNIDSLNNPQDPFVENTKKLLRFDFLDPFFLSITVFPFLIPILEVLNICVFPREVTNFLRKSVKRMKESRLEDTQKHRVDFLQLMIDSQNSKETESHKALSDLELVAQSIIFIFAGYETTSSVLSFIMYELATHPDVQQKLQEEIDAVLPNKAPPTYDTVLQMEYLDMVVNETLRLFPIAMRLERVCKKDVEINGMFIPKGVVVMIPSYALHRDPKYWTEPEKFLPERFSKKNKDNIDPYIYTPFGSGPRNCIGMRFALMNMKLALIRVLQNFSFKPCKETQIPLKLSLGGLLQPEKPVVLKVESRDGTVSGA
# CYP2D6 = CYP2D6 (Homo sapiens, UniProt P10635); experiment: biochemical
# CYP2D6, sequence (P10635 whole entry): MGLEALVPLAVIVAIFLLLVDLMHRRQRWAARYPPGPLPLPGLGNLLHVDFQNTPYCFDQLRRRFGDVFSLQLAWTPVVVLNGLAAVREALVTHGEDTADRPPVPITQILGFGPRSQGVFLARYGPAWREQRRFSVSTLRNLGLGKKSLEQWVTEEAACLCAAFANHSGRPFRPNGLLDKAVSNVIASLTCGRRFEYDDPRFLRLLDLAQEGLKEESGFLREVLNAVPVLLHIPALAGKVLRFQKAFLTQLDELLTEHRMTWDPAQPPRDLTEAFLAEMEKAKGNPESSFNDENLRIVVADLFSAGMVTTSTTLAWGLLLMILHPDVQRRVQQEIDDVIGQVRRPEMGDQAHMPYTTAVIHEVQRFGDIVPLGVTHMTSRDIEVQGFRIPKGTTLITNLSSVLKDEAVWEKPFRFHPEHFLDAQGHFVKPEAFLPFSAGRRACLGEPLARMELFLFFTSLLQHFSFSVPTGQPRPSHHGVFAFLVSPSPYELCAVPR
# [5] = inverse agonist at the ghrelin receptor, Method B4
# [6] = Table 10b, 2 mg/mL intravenous typically employed
# [7] = plasma, Oral, 8 mg/kg, read-out: Cmax
# T1 sequence (Q92847 whole entry): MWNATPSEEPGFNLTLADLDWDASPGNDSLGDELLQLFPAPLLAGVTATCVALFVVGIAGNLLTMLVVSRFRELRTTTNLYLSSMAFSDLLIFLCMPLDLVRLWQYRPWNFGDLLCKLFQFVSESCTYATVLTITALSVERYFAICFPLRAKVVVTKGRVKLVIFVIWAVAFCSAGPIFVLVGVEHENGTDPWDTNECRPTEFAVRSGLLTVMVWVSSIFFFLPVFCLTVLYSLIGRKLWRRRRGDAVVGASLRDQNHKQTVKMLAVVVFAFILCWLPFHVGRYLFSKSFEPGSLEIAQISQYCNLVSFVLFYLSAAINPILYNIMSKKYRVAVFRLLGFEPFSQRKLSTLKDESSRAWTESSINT
SMILES,"IC50 [1, 5] [nM]","Binding (%), Human Plasma Protein Binding [2] [%]",% F ([3]; Table 10b) [%],"Cl [3, 6] [mL/min/kg]","t1/2 [3, 6] [h]",also measured
CC(C)C1NCCOc2ccccc2C#CCNC(=O)C(Cc2c[nH]c3ccccc23)NC(=O)C(C(C)O)N(C)C1=O (stereo not drawn) [Compound 1692],100 to 500,98.2,–,–,–,–
CC(C)C1NCCOc2cc(F)ccc2C#CCNC(=O)C(Cc2c[nH]c3ccccc23)NC(=O)C(C(C)O)N(C)C1=O (stereo not drawn) [Compound 1693],100 to 500,–,5 ± 2,35 ± 18,0.683 ± 0.067,–
CCC1CCc2ccc(F)cc2OCCNC(C2(C)CC2)C(=O)N(C)C(C(C)O)C(=O)NC(Cc2c[nH]c3ccccc23)C(=O)N1 (stereo not drawn) [Compound 1703],50 to 100,99.5,12 ± 6,9 ± 6,2.45 ± 0.867,–
CC[C@@H]1C#Cc2ccc(F)cc2O[C@H](C)CN[C@@H](C2(C)CC2)C(=O)N(C)[C@@H](C(C)O)C(=O)N[C@H](Cc2c[nH]c3ccccc23)C(=O)N1 (stereo partly drawn) [Compound 1707],100 to 500,99.6,–,8 ± 4,2.17 ± 0.433,–
CC(C)[C@@H]1NCCOc2ccccc2C#CCNC(=O)[C@@H](Cc2ccccc2)NC(=O)[C@H](C(C)O)N(C)C1=O (stereo partly drawn) [Compound 1712],–,–,–,–,–,"IC50 [1]: 50 to 100 nM; fraction unbound at 60 min, 10 μM ([2]; human plasma): 0.024; F ([3]; Oral, 8 mg/kg): 15 ± 10%; Tmax ([3]; Oral, 8 mg/kg): 15/15/15; AUC(0-inf) ([3]; plasma, Intravenous, 2 mg/kg): 544 ng·h/mL; clearance ([3]; plasma, Intravenous, 2 mg/kg): 62 ± 10 mL/min/kg; half-life ([3]; plasma, Intravenous, 2 mg/kg): 2.3 ± 1.43 h; Vd ([3]; plasma, Intravenous, 2 mg/kg): 13.2 ± 9.57 L/kg; AUC(0-inf) ([3]; plasma, Oral, 8 mg/kg): 336 ng·h/mL; Cmax [3, 7]: 352 ± 297 ng/mL; IC50 [4]: 3.4 nM; IC50 (CYP3A4): 5800 nM"
CC(O)[C@H]1C(=O)N[C@H](Cc2c[nH]c3ccccc23)C(=O)N[C@H](C)C#Cc2ccccc2OCCN[C@@H](C2(C)CC2)C(=O)N1C (stereo partly drawn) [Compound 1713],50 to 100,–,14 ± 9,30 ± 1,1.73 ± 0.417,–
CC[C@@H]1C#Cc2ccccc2O[C@H](C)CN[C@@H](C2(C)CC2)C(=O)N(C)[C@@H](C(C)O)C(=O)N[C@H](Cc2c[nH]c3ccccc23)C(=O)N1 (stereo partly drawn) [Compound 1718],50 to 100,–,17 ± 6,5 ± 1,2.7 ± 0.067,–
CC(O)[C@H]1C(=O)N[C@H](Cc2c[nH]c3ccccc23)C(=O)N[C@H](C)CCc2ccc(F)cc2O[C@H](C)CN[C@@H](C2(C)CC2)C(=O)N1C (stereo partly drawn) [Compound 1719],100 to 500,–,–,44 ± 3,1.55 ± 0.183,–
CC(O)[C@H]1C(=O)N[C@H](Cc2c[nH]c3ccccc23)C(=O)N[C@H](C)C#Cc2ccc(F)cc2O[C@H](C)CN[C@@H](C2(C)CC2)C(=O)N1C (stereo partly drawn) [Compound 1720],100 to 500,–,–,33 ± 12,1.17 ± 0.25,–
CC[C@@H]1C#Cc2c(F)cccc2OCCN[C@@H](C(C)C)C(=O)N(C)[C@@H](C(C)O)C(=O)N[C@H](Cc2c[nH]c3ccccc23)C(=O)N1 (stereo partly drawn) [Compound 1726],50 to 100,99.8,14 ± 8,9 ± 6,2.85 ± 0.267,–
CC[C@@H]1CCc2ccc(F)cc2OCCN[C@@H](C2(C)CC2)C(=O)N(C)[C@@H](C(C)O)C(=O)N[C@H](Cc2ccccc2)C(=O)N1 (stereo partly drawn) [Compound 1746],50 to 100,–,59 ± 31,12 ± 1,1.78 ± 0.067,–
CC[C@@H]1CCc2ccc(F)cc2OCCN[C@@H](C(C)C)C(=O)N(C)[C@@H](C(C)O)C(=O)N[C@H](Cc2ccc(O)cc2)C(=O)N1 (stereo partly drawn) [Compound 1751],100 to 500,97.4,34 ± 19,32 ± 5,0.767 ± 0.017,–
CC[C@@H]1C#Cc2ccccc2OCCN[C@@H](C(C)C)C(=O)N(C)[C@@H](C(C)O)C(=O)N[C@H](Cc2c[nH]c3ccccc23)C(=O)N1 (stereo partly drawn) [Compound 1754],50 to 100,99.4,39 ± 44,8 ± 1,1.77 ± 0.217,–
CC[C@@H]1C#Cc2ccc(F)cc2OCCN[C@@H](C(C)C)C(=O)N(C)[C@@H](C(C)O)C(=O)N[C@H](Cc2c[nH]c3ccccc23)C(=O)N1 (stereo partly drawn) [Compound 1755],50 to 100,99.3,7 ± 4,12 ± 13,2.05 ± 0.467,–
CC(C)[C@@H]1NCC2CCc3cccc(c3O2)CCCNC(=O)[C@@H](Cc2ccccc2)NC(=O)[C@H](C(C)O)N(C)C1=O (stereo partly drawn) [Compound 1777],50 to 100,95.8,–,–,–,"AUCinf ([3]; Intravenous, 2 mg/kg): 369904 ± 127112 ng·min/mL; Cl ([3]; Intravenous, 2 mg/kg): 6 ± 2 mL/min/kg; Vz ([3]; Intravenous, 2 mg/kg): 0.882 ± 0.272 L/kg; t1/2 ([3]; Intravenous, 2 mg/kg): 1.78 ± 0.067 h; AUCinf ([3]; Oral, 8 mg/kg): 190433 ± 114760 ng·min/mL; Cmax ([3]; Oral, 8 mg/kg): 1075 ± 772 ng/mL; F ([3]; Oral, 8 mg/kg): 13 ± 8%; Tmax ([3]; Oral, 8 mg/kg): 15/30/15/15/15/15; IC50 [4]: 7.8 nM"
CC(C)[C@@H]1NCCOc2ccccc2C2CCC(C2)NC(=O)[C@@H](Cc2c[nH]c3ccccc23)NC(=O)[C@H](C(C)O)N(C)C1=O (stereo partly drawn) [Compound 1843],10 to 50,92.1,–,–,–,IC50 [4]: 2.3 nM
CC(C)[C@@H]1NCCOc2cccc(F)c2C#CCNC(=O)[C@@H](Cc2ccccc2)NC(=O)[C@H](C(C)O)N(C)C1=O (stereo partly drawn) [Compound 1929],–,–,–,–,–,"IC50 [1]: 50 to 100 nM; F ([3]; Oral, 8 mg/kg): 42 ± 51%; Tmax ([3]; Oral, 8 mg/kg): 15/15/30; AUC(0-inf) ([3]; plasma, Intravenous, 2 mg/kg): 1060 ng·h/mL; clearance ([3]; plasma, Intravenous, 2 mg/kg): 32 ± 4 mL/min/kg; half-life ([3]; plasma, Intravenous, 2 mg/kg): 2.83 ± 1.03 h; Vd ([3]; plasma, Intravenous, 2 mg/kg): 7.99 ± 3.7 L/kg; AUC(0-inf) ([3]; plasma, Oral, 8 mg/kg): 1790 ng·h/mL; Cmax [3, 7]: 628 ± 766 ng/mL; IC50 [4]: 2 nM; IC50 (CYP2D6): 25700 nM"
